Experimental data: US20250129430A1, “HIGH ATP-AFFINITY PROTEIN AS THERAPEUTIC TARGET FOR INTRACTABLE CANCER MOLECULAR SUBTYPES AND INHIBITOR THEREOF” (VeraVerse Co., Ltd., priority 2021, published 2025)

What was measured:
Experiment in all cases: Cell viability drug screen, 12-point dose-response AUC
Assay type in all cases: cell-based, human
AGS = conditions: 72 hours; for Average Area Under the Viability Curve (AUC), AUC norm value: AGS cells (non-SEM subtype)
Method: (§1) An FDA-approved small-molecule pharmacological compound (#L1300) and an anticancer compound for research (#L2000) were purchased from Selecckchem and a 10 mM solution was prepared in DMSO. A total of 1,345 compounds were tested the cell viability of the seven EMT gastric cancer cell lines.
(§2) Cells cultured for cell-based drug assay were inoculated into a 96-well white optical plate (Corning) at 5×10^3 cells per well. After 24 hours after inoculation, a 2.5 MJT (primary screen) or a half-log 12-serial diluent (secondary screen) of the pharmacological compound contained in DMSO is added to the cells with a robot using a BioMek FXp liquid processor (Beckman) to add to the cells at 50 mM. The final drug concentration in the 5 ns range and the DMSO specification control (0.5%) were calculated. The cells were then further incubated at 37° C. in a 5% CO2 incubator for 72 hours prior to measuring cell viability using the extra-GLO assay kit (Promega). The luminescent properties were measured after 15 min incubation at room temperature using a plate stacker equipped with a plate stacker. The normalized viability for the DMSO-based control was measured to generate a cell line-specific 12-point dose-response curve for each pharmacological compound, and then the area under the curve (AUC) was calculated using a trapezoidal method. […] The results of the repeated experiments were averaged to generate AUC values for each cell line for each compound.

Hs746T = conditions: 72 hours; for Average Area Under the Viability Curve (AUC), AUC norm value: Hs746T cells (SEM subtype)
Method: as §1, §2

KATO3 = KATO3 cells, 72 hours
Method: as §1, §2

MKN1 = MKN1 cells, 72 hours
Method: as §1, §2

MKN28 = MKN28 cells, 72 hours
Method: as §1, §2

MKN45 = conditions: 72 hours; for Average Area Under the Viability Curve (AUC), AUC norm value: MKN45 cells (non-SEM subtype)
Method: as §1, §2

MKN74 = MKN74 cells, 72 hours
Method: as §1, §2

NCC19 = NCC19 cells, 72 hours
Method: as §1, §2

NCC20 = NCC20 cells, 72 hours
Method: as §1, §2

NCC24 = NCC24 cells, 72 hours
Method: as §1, §2

NCC59 = NCC59 cells, 72 hours
Method: as §1, §2

NCI_N87 = NCI_N87 cells, 72 hours
Method: as §1, §2

OCUM1 = OCUM1 cells, 72 hours
Method: as §1, §2

SK4 = conditions: 72 hours; for Average Area Under the Viability Curve (AUC), AUC norm value: SK4 cells (SEM subtype)
Method: as §1, §2

SNU16 = SNU16 cells, 72 hours
Method: as §1, §2

SNU1750 = conditions: 72 hours; for Average Area Under the Viability Curve (AUC), AUC norm value: SNU1750 cells (SEM subtype)
Method: as §1, §2

SNU1967 = SNU1967 cells, 72 hours
Method: as §1, §2

SNU1 = SNU1 cells, 72 hours
Method: as §1, §2

SNU216 = conditions: 72 hours; for Average Area Under the Viability Curve (AUC), AUC norm value: SNU216 cells (non-SEM subtype)
Method: as §1, §2

SNU484 = conditions: 72 hours; for Average Area Under the Viability Curve (AUC), AUC norm value: SNU484 cells (SEM subtype)
Method: as §1, §2

SNU601 = SNU601 cells, 72 hours
Method: as §1, §2

SNU620 = SNU620 cells, 72 hours
Method: as §1, §2

SNU638 = SNU638 cells, 72 hours
Method: as §1, §2

SNU668 = conditions: 72 hours; for Average Area Under the Viability Curve (AUC), AUC norm value: SNU668 cells (SEM subtype)
Method: as §1, §2

SNU719 = SNU719 cells, 72 hours
Method: as §1, §2

YCC11 = conditions: 72 hours; for Average Area Under the Viability Curve (AUC), AUC norm value: YCC11 cells (SEM subtype)
Method: as §1, §2

YCC2 = YCC2 cells, 72 hours
Method: as §1, §2

YCC3 = YCC3 cells, 72 hours
Method: as §1, §2

FU97 = FU97 cells; 72 hours; 12-point dose-response
Method: Cells cultured for cell-based drug assay were inoculated into a 96-well white optical plate (Corning) at 5×10^3 cells per well. After 24 hours after inoculation, a 2.5 MJT (primary screen) or a half-log 12-serial diluent (secondary screen) of the pharmacological compound contained in DMSO is added to the cells with a robot using a BioMek FXp liquid processor (Beckman) to add to the cells at 50 mM. The final drug concentration in the 5 ns range and the DMSO specification control (0.5%) were calculated. The cells were then further incubated at 37° C. in a 5% CO2 incubator for 72 hours prior to measuring cell viability using the extra-GLO assay kit (Promega). The luminescent properties were measured after 15 min incubation at room temperature using a plate stacker equipped with a plate stacker. The normalized viability for the DMSO-based control was measured to generate a cell line-specific 12-point dose-response curve for each pharmacological compound, and then the area under the curve (AUC) was calculated using a trapezoidal method.

CCCOc1ccc2nc(NC(=O)OC)[nH]c2c1 [Oxybendazole]
area under the viability curve (AUC), normalized (AGS; AGS cells, 12-point dose-response): −1.064 | area under the viability curve (AUC), normalized (Hs746T; Hs746T cells, 12-point dose-response): 1.204 | area under the viability curve (AUC), normalized (KATO3; 12-point dose-response): 3.472 | area under the viability curve (AUC), normalized (MKN1; 12-point dose-response): −0.5859 | area under the viability curve (AUC), normalized (MKN28; 12-point dose-response): −0.1307 | area under the viability curve (AUC), normalized (MKN45; MKN45 cells, 12-point dose-response): 2.187 | area under the viability curve (AUC), normalized (MKN74; 12-point dose-response): 0.4498 | area under the viability curve (AUC), normalized (NCC19; 12-point dose-response): 1.219 | area under the viability curve (AUC), normalized (NCC20; 12-point dose-response): −0.7466 | area under the viability curve (AUC), normalized (NCC24; 12-point dose-response): −1.131 | area under the viability curve (AUC), normalized (NCC59; 12-point dose-response): 2.518 | area under the viability curve (AUC), normalized (NCI_N87; 12-point dose-response): −0.1928 | area under the viability curve (AUC), normalized (OCUM1; 12-point dose-response): 1.059 | area under the viability curve (AUC), normalized (SK4; SK4 cells, 12-point dose-response): −0.1414 | area under the viability curve (AUC), normalized (SNU16; 12-point dose-response): 2.326 | area under the viability curve (AUC), normalized (SNU1750; SNU1750 cells, 12-point dose-response): 0.4952 | area under the viability curve (AUC), normalized (SNU1967; 12-point dose-response): 0 | area under the viability curve (AUC), normalized (SNU1; 12-point dose-response): −1.007 | area under the viability curve (AUC), normalized (SNU216; SNU216 cells, 12-point dose-response): 1.744 | area under the viability curve (AUC), normalized (SNU484; SNU484 cells, 12-point dose-response): −0.00299 | area under the viability curve (AUC), normalized (SNU601; 12-point dose-response): 1.095 | area under the viability curve (AUC), normalized (SNU620; 12-point dose-response): −1.528 | area under the viability curve (AUC), normalized (SNU638; 12-point dose-response): −0.2808 | area under the viability curve (AUC), normalized (SNU668; SNU668 cells, 12-point dose-response): −0.3638 | area under the viability curve (AUC), normalized (SNU719; 12-point dose-response): 3.17 | area under the viability curve (AUC), normalized (YCC11; YCC11 cells, 12-point dose-response): −0.2902 | area under the viability curve (AUC), normalized (YCC2; 12-point dose-response): 0.7894 | area under the viability curve (AUC), normalized (YCC3; 12-point dose-response): 2.897 | area under the viability curve (AUC), normalized (FU97): −0.3548

O=C(Nc1c[nH]nc1-c1nc2ccc(CN3CCOCC3)cc2[nH]1)NC1CC1 [AT9283]
Average Area Under the Viability Curve (AUC), AUC norm value (AGS): −0.9303 | Average Area Under the Viability Curve (AUC), AUC norm value (Hs746T): 0.9084 | Average Area Under the Viability Curve (AUC), AUC norm value (KATO3): 0.5115 | Average Area Under the Viability Curve (AUC), AUC norm value (MKN1): −2.315 | Average Area Under the Viability Curve (AUC), AUC norm value (MKN28): −1.903 | Average Area Under the Viability Curve (AUC), AUC norm value (MKN45): −0.1996 | Average Area Under the Viability Curve (AUC), AUC norm value (MKN74): 0.4728 | Average Area Under the Viability Curve (AUC), AUC norm value (NCC19): 2.247 | Average Area Under the Viability Curve (AUC), AUC norm value (NCC20): −2.941 | Average Area Under the Viability Curve (AUC), AUC norm value (NCC24): −0.6909 | Average Area Under the Viability Curve (AUC), AUC norm value (NCC59): 0.5882 | Average Area Under the Viability Curve (AUC), AUC norm value (NCI_N87): 0.1418 | Average Area Under the Viability Curve (AUC), AUC norm value (OCUM1): 0 | Average Area Under the Viability Curve (AUC), AUC norm value (SK4): −0.4441 | Average Area Under the Viability Curve (AUC), AUC norm value (SNU16): −3.809 | Average Area Under the Viability Curve (AUC), AUC norm value (SNU1750): −1.7502 | Average Area Under the Viability Curve (AUC), AUC norm value (SNU1967): −0.1244 | Average Area Under the Viability Curve (AUC), AUC norm value (SNU1): −3.743 | Average Area Under the Viability Curve (AUC), AUC norm value (SNU216): 0.5323 | Average Area Under the Viability Curve (AUC), AUC norm value (SNU484): −1.872 | Average Area Under the Viability Curve (AUC), AUC norm value (SNU601): 1.648 | Average Area Under the Viability Curve (AUC), AUC norm value (SNU620): −4.059 | Average Area Under the Viability Curve (AUC), AUC norm value (SNU638): −0.01142 | Average Area Under the Viability Curve (AUC), AUC norm value (SNU668): 0.6968 | Average Area Under the Viability Curve (AUC), AUC norm value (SNU719): 3.019 | Average Area Under the Viability Curve (AUC), AUC norm value (YCC11): −1.467 | Average Area Under the Viability Curve (AUC), AUC norm value (YCC2): 0.07527 | Average Area Under the Viability Curve (AUC), AUC norm value (YCC3): 0.6619

Cc1ccc(C(=O)N(CCCN)[C@@H](c2nc3cc(Cl)ccc3c(=O)n2Cc2ccccc2)C(C)C)cc1 [Ispinesib (SB-715992), Ispinesib]
Average Area Under the Viability Curve (AUC), AUC norm value (AGS): −2.131 | Average Area Under the Viability Curve (AUC), AUC norm value (Hs746T): 1.046 | Average Area Under the Viability Curve (AUC), AUC norm value (KATO3): 2.999 | Average Area Under the Viability Curve (AUC), AUC norm value (MKN1): −1.178 | Average Area Under the Viability Curve (AUC), AUC norm value (MKN28): −1.956 | Average Area Under the Viability Curve (AUC), AUC norm value (MKN45): 1.833 | Average Area Under the Viability Curve (AUC), AUC norm value (MKN74): 0 | Average Area Under the Viability Curve (AUC), AUC norm value (NCC19): 1.111 | Average Area Under the Viability Curve (AUC), AUC norm value (NCC20): −0.9939 | Average Area Under the Viability Curve (AUC), AUC norm value (NCC24): −0.8348 | Average Area Under the Viability Curve (AUC), AUC norm value (NCC59): 2.6543 | Average Area Under the Viability Curve (AUC), AUC norm value (NCI_N87): −0.0052 | Average Area Under the Viability Curve (AUC), AUC norm value (OCUM1): 1.297 | Average Area Under the Viability Curve (AUC), AUC norm value (SK4): −0.8267 | Average Area Under the Viability Curve (AUC), AUC norm value (SNU16): −1.935 | Average Area Under the Viability Curve (AUC), AUC norm value (SNU1750): 0.2265 | Average Area Under the Viability Curve (AUC), AUC norm value (SNU1967): 1.562 | Average Area Under the Viability Curve (AUC), AUC norm value (SNU1): −1.68 | Average Area Under the Viability Curve (AUC), AUC norm value (SNU216): 1.801 | Average Area Under the Viability Curve (AUC), AUC norm value (SNU484): −0.9509 | Average Area Under the Viability Curve (AUC), AUC norm value (SNU601): −1.371 | Average Area Under the Viability Curve (AUC), AUC norm value (SNU620): −1.255 | Average Area Under the Viability Curve (AUC), AUC norm value (SNU638): −0.203 | Average Area Under the Viability Curve (AUC), AUC norm value (SNU668): 0.1001 | Average Area Under the Viability Curve (AUC), AUC norm value (SNU719): 2.542 | Average Area Under the Viability Curve (AUC), AUC norm value (YCC11): −1.381 | Average Area Under the Viability Curve (AUC), AUC norm value (YCC2): 0.7987 | Average Area Under the Viability Curve (AUC), AUC norm value (YCC3): 2.007
